Where two headings read alike, the source gives them in different places.
Assay: Chemical stability in butyl benzoate
Format: physicochemical

| SMILES | chemical stability in the butyl benzoate | chemical stability in the butyl benzoate (room temperature or accelerated temperature) |
| --- | --- | --- |
| COc1nn(C(=O)[N-]S(=O)(=O)c2ccccc2OC(F)(F)F)c(=O)n1C.[Na+] [Flucarbazone sodium] | chemically stable | – |
| CC(Oc1ccc(Oc2nc3ccc(Cl)cc3o2)cc1)C(=O)O (centres unmarked) [fenoxaprop] | – | chemically stable |

Reference: patent publication US12414566B2, “Safener containing herbicidal oil dispersion” (ARYSTA LIFESCIENCE INC, priority 2017, dated 2025)
